Assay results as given in patent US8642629B2, “Naphthylacetic acids” (Hoffmann-La Roche Inc., priority 2008, dated 2014).

Biological target: T1, human CRTH2 (Homo sapiens, UniProt Q9Y5Y4)
T1 construct: expressed in transfected cells; host or cells: CHO-K1
T1 sequence (Q9Y5Y4 1-395): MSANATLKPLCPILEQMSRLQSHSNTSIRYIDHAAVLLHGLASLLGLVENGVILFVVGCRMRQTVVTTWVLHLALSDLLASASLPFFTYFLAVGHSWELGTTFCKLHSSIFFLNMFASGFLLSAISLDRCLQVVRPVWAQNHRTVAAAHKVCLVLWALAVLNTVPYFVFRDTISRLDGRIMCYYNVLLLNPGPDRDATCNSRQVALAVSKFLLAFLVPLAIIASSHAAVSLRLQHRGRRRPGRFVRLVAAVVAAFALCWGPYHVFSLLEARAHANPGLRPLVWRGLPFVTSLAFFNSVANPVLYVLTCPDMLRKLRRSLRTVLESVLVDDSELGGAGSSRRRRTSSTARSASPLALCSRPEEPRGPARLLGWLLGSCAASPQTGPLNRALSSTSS
Experiment: Human CRTH2 Receptor Binding Assay (whole cell, [3H]ramatroban competition)
Settings: CHO-K1 cells expressing human CRTH2 and G-alpha16; 20 nM [3H]ramatroban; 1 hour, room temperature
Source text: A whole cell receptor binding assay using [^3H]ramatroban as the competing radioactive ligand was employed to evaluate the compound binding activity to human CRTH2. The radioactive ligand [^3H]ramatroban was synthesized according to Sugimoto et. al. (Eur. J. Pharmacol. 524, 30-37, 2005) to a specific activity of 42 Ci/mmol.
A cell line stably expressing human CRTH2 was established by transfecting CHO-K1 cells with two mammalian expression vectors that harbored human CRTH2 and G-alpha16 cDNAs, respectively, using FuGene® 6 transfection reagent (from Roche). Stable clones expressing CRTH2 were selected by staining each clone with BM16 (BD Pharmingen™ from BD Biosciences, a division of Becton, Dickinson and Company), which is a rat monoclonal antibody to human CRTH2. The cells were maintained as monolayer cultures in Ham's F-12 medium containing 10% fetal bovine serum, 100 units/mL penicillin, 100 μg/mL streptomycin, 2 mM glutamine, 0.5 mg/mL G418 (geneticin) for CRTH2, and 0.2 mg/mL hygromycin-B (for G-alpha 16). For whole cell receptor binding assay, the monolayer cells were rinsed once with PBS (phosphate buffered saline), dissociated using ethylenediaminetetraacetate (Versene™ EDTA from Lonza Inc.), and suspended in PBS containing 10 mM MgCl2 and 0.06% BSA (bovine serum albumin) at 1.5×10^6 cells/mL.
The binding reactions (0.2 mL) were performed in 96-well plates at room temperature in PBS containing 1.5×10^5 cells, 10 mM MgCl2, 0.06% BSA, 20 nM [^3H]ramatroban, and test compound at various concentrations. After 1 hour of binding reactions, the cells were harvested on GF™/B filter microplates (microtiter plates with embedded glass fiber from PerkinElmer, Inc.) and washed 5 times with PBS using a Filtermate™ Harvester (a cell harvester that harvests and washes cells from microplates from PerkinElmer, Inc.). The radioactivities bound to the cells were determined using a microplate scintillation counter (TopCount® NXT, from PerkinElmer, Inc.) after adding 50 μL of Microscint™ 20 scintillation fluid (from PerkinElmer, Inc.) to each well of the filter plates. The radioactivity from non-specific binding was determined by replacing compound with 10 μM of 15(R)-15-methyl PGD2 (from Cayman Chemical Company) in the reaction mixtures. The radioactivity bound to the cells in the absence of compound (total binding) was determined by replacing compound with 0.25% of DMSO (dimethyl sulfoxide) in the reaction mixture. Specific binding data were obtained by subtracting the radioactivity of non-specific binding from each binding data.
The IC50 value is defined as the concentration of the tested compound that is required for 50% inhibition of total specific binding. In order to calculate the IC50 value, the percent inhibition data were determined for 7 concentrations for each compound. The percent inhibition for a compound at each concentration was calculated according to the following formula, [1−(specific binding in the presence of compound)/(total specific binding)]×100. The IC50 value was then obtained by fitting the percent inhibition data to a sigmoidal dose-response (4 parameter logistic) model in the XLfit® software Excel add-in program [from ID Business Solutions Ltd., model 205, where F(x)=(A+(B−A)/(1+((C/x)^D)))].

Cc1c(CC(=O)O)cc2ccc(F)cc2c1Oc1ccc(S(=O)(=O)N(C)C)cc1 [Example 2-37, [4-(4-dimethylsulfamoyl-phenoxy)-6-fluoro-3-methyl-naphthalen-2-yl]-acetic acid]
IC50: 1.9 nM

Cc1c(CC(=O)O)cc2ccc(F)cc2c1Oc1ccc(S(=O)(=O)N2CCCC2)cc1 [Example 2-38, {6-fluoro-3-methyl-4-[4-(pyrrolidine-1-sulfonyl)-phenoxy]-naphthalen-2-yl}-acetic acid]
IC50: 2.2 nM

CCN(CC)S(=O)(=O)c1ccc(Oc2c(C)c(CC(=O)O)cc3ccc(F)cc23)cc1 [Example 2-39, [4-(4-diethylsulfamoyl-phenoxy)-6-fluoro-3-methyl-naphthalen-2-yl]-acetic acid]
IC50: 2 nM

Cc1c(CC(=O)O)cc2ccc(F)cc2c1Oc1ccc(S(=O)(=O)N2CCOCC2)cc1 [Example 2-40, {6-fluoro-3-methyl-4-[4-(morpholine-4-sulfonyl)-phenoxy]-naphthalen-2-yl}-acetic acid]
IC50: 6.3 nM

Cc1c(CC(=O)O)cc2ccc(F)cc2c1Oc1ccc(S(=O)(=O)N2CCN(C)CC2)cc1 [Example 2-41, {6-fluoro-3-methyl-4-[4-(4-methyl-piperazine-1-sulfonyl)-phenoxy]-naphthalen-2-yl}-acetic acid]
IC50: 1.7 nM

Cc1c(CC(=O)O)cc2ccc(F)cc2c1Oc1ccc(S(=O)(=O)N2CCC(F)(F)CC2)cc1 [Example 2-42, {4-[4-(4,4-difluoro-piperidine-1-sulfonyl)-phenoxy]-6-fluoro-3-methyl-naphthalen-2-yl}-acetic acid]
IC50: 2.9 nM

Cc1c(CC(=O)O)cc2ccc(F)cc2c1Oc1ccc(S(=O)(=O)N2CC3(COC3)C2)cc1 [Example 2-43, {6-fluoro-3-methyl-4-[4-(2-oxa-6-aza-spiro[3.3]heptane-6-sulfonyl)-phenoxy]-naphthalen-2-yl}-acetic acid]
IC50: 1.8 nM

Cc1c(CC(=O)O)cc2ccc(F)cc2c1Oc1ccc(C#N)cc1 [Example 2-44, [4-(4-cyano-phenoxy)-6-fluoro-3-methyl-naphthalen-2-yl]-acetic acid]
IC50: 10 nM

Cc1c(CC(=O)O)cc2ccc(Cl)cc2c1Oc1ccc(C#N)cc1 [Example 2-45, [6-chloro-4-(4-cyano-phenoxy)-3-methyl-naphthalen-2-yl]-acetic acid]
IC50: 134 nM

CS(=O)(=O)c1ccc(Oc2cc(CC(=O)O)cc3ccccc23)cc1 [Example 3-1, [4-(4-methanesulfonyl-phenoxy)-naphthalen-2-yl]-acetic acid]
IC50: 12.9 nM

Cc1c(CC(=O)O)cc2ccccc2c1Oc1ccc(S(C)(=O)=O)cc1 [Example 3-2, [4-(4-methanesulfonyl-phenoxy)-3-methyl-naphthalen-2-yl]-acetic acid]
IC50: 4.7 nM

CS(=O)(=O)c1ccc(Oc2cc(CC(=O)O)c(F)c3ccc(F)cc23)nc1 [Example 4-1, [1,6-difluoro-4-(5-methanesulfonyl-pyridin-2-yloxy)-naphthalen-2-yl]-acetic acid]
IC50: 7.9 nM

CCS(=O)(=O)c1ccc(Oc2cc(CC(=O)O)c(F)c3ccc(F)cc23)nc1 [Example 4-2, [1,6-difluoro-4-(5-ethanesulfonyl-pyridin-2-yloxy)-naphthalen-2-yl]-acetic acid]
IC50: 21.3 nM

CCS(=O)(=O)c1ccc(Oc2c(F)c(CC(=O)O)cc3ccc(F)cc23)nc1 [Example 5-1, [4-(5-ethanesulfonyl-pyridin-2-yloxy)-3,6-difluoro-naphthalen-2-yl]-acetic acid]
IC50: 3.1 nM

CCS(=O)(=O)c1ccc(Oc2cc(CC(=O)O)c(C)c3ccc(F)cc23)nc1 [Example 6-1, [4-(5-ethanesulfonyl-pyridin-2-yloxy)-6-fluoro-1-methyl-naphthalen-2-yl]-acetic acid]
IC50: 32.1 nM

CS(=O)(=O)c1ccc(Nc2cc(CC(=O)O)cc3ccc(F)cc23)cc1 [Example 8-1, [6-fluoro-4-(4-methanesulfonyl-phenylamino)-naphthalen-2-yl]-acetic acid]
IC50: 3.3 nM

Cc1c(CC(=O)O)cc2ccc(F)cc2c1Nc1ccc(S(C)(=O)=O)cc1 [Example 8-2, [6-fluoro-4-(4-methanesulfonyl-phenylamino)-3-methyl-naphthalen-2-yl]-acetic acid]
IC50: 2.6 nM

CS(=O)(=O)c1ccc(Sc2cc(CC(=O)O)cc3ccc(F)cc23)cc1 [Example 9-1, [6-fluoro-4-(4-methanesulfonyl-phenylsulfanyl)-naphthalen-2-yl]-acetic acid]
IC50: 7.5 nM

CS(=O)(=O)c1ccc([S+]([O-])c2cc(CC(=O)O)cc3ccc(F)cc23)cc1 (stereo not drawn) [Example 10-1, [6-fluoro-4-(4-methanesulfonyl-benzenesulfinyl)-naphthalen-2-yl]-acetic acid]
IC50: 10.3 nM

CS(=O)(=O)c1ccc(S(=O)(=O)c2cc(CC(=O)O)cc3ccc(F)cc23)cc1 [Example 11-1, [6-fluoro-4-(4-methanesulfonyl-benzenesulfonyl)-naphthalen-2-yl]-acetic acid]
IC50: 7.7 nM

CCS(=O)(=O)c1ccc(Oc2cc(CC(=O)O)cc3ccc(Br)cc23)nc1 [Example 12-1, [6-Bromo-4-(5-ethanesulfonyl-pyridin-2-yloxy)-naphthalen-2-yl]-acetic acid]
IC50: 5.3 nM

CCS(=O)(=O)c1ccc(Oc2cc(CC(=O)O)cc3ccc(C)cc23)nc1 [Example 13-1, [4-(5-Ethanesulfonyl-pyridin-2-yloxy)-6-methyl-naphthalen-2-yl]-acetic acid]
IC50: 73.7 nM

CCS(=O)(=O)c1ccc(Oc2cc(CC(=O)O)cc3ccc(C#N)cc23)nc1 [Example 14-1, [6-Cyano-4-(5-ethanesulfonyl-pyridin-2-yloxy)-naphthalen-2-yl]-acetic acid]
IC50: 3.3 nM

CCS(=O)(=O)c1ccc(Oc2cc(CC(=O)O)cc3ccc(Br)cc23)cc1 [Example 15-1, [6-Bromo-4-(4-ethanesulfonyl-phenoxy)-naphthalen-2-yl]-acetic acid]
IC50: 5.4 nM

CCS(=O)(=O)c1ccc(Oc2cc(CC(=O)O)cc3ccc(S(C)(=O)=O)cc23)cc1 [Example 16-1, [4-(4-Ethanesulfonyl-phenoxy)-6-methanesulfonyl-naphthalen-2-yl]-acetic acid]
IC50: 91.5 nM

C=Cc1c(CC(=O)O)cc2ccc(F)cc2c1Oc1ccc(S(=O)(=O)CC)cn1 [Example 17-1, [4-(5-Ethanesulfonyl-pyridin-2-yloxy)-6-fluoro-3-vinyl-naphthalen-2-yl]-acetic acid]
IC50: 12.4 nM

CCS(=O)(=O)c1ccc(Oc2c(C3CC3)c(CC(=O)O)cc3ccc(F)cc23)nc1 [Example 18-1, [3-Cyclopropyl-4-(5-ethanesulfonyl-pyridin-2-yloxy)-6-fluoro-naphthalen-2-yl]-acetic acid]
IC50: 6.7 nM

CCc1c(CC(=O)O)cc2ccc(F)cc2c1Oc1ccc(S(=O)(=O)CC)cn1 [Example 19-1]
IC50: 17.5 nM

CCc1cc(S(=O)(=O)CC)cnc1Oc1c(C)c(CC(=O)O)cc2ccc(F)cc12 [Example 20-1, [4-(5-Ethanesulfonyl-3-ethyl-pyridin-2-yloxy)-6-fluoro-3-methyl-naphthalen-2-yl]-acetic acid]
IC50: 2.9 nM

CCS(=O)(=O)c1cnc(Oc2c(C)c(CC(=O)O)cc3ccc(F)cc23)c(C2CC2)c1 [Example 21-1, [4-(3-Cyclopropyl-5-ethanesulfonyl-pyridin-2-yloxy)-6-fluoro-3-methyl-naphthalen-2-yl]-acetic acid]
IC50: 2.8 nM
